Laboratory results from patent US8338565B2, “Macrocyclic compounds for inhibition of tumor necrosis factor alpha” (Ensemble Therapeutics Corporation, priority 2008, dated 2012).
Like-named read-outs stand apart in the source and are kept apart here. Numbered stars: 1 amine (or outer) side, 2 acyl side, 3 side chain; on linkers, the order of the positions; unused ones are H or OH. Bridge positions count the residues as written; N and C are the ends. Square brackets hold non-standard residues; d marks the D form. Peptide text beside a SMILES is read from it. Tartaroyl(2R,3R-(OAc)2) = CC(=O)O[C@@H](C(=O)[*:1])[C@@H](OC(C)=O)C(=O)[*:2]; Phe(4-CF3) = N[C@@H](Cc1ccc(C(F)(F)F)cc1)C(=O)O; Phe(4-COOH) = N[C@@H](Cc1ccc(C(=O)O)cc1)C(=O)O; Bip = N[C@@H](Cc1ccc(-c2ccccc2)cc1)C(=O)O; dPhe(4-NH2) = Nc1ccc(C[C@@H](N)C(=O)O)cc1; Phe(4-Br) = N[C@@H](Cc1ccc(Br)cc1)C(=O)O; Phe(4-NH2) = Nc1ccc(C[C@H](N)C(=O)O)cc1; dAla(2-furyl) = N[C@H](Cc1ccco1)C(=O)O; His(τ-Me) = Cn1cnc(C[C@H](N)C(=O)O)c1; d1Nal = N[C@H](Cc1cccc2ccccc12)C(=O)O; d2Nal = N[C@H](Cc1ccc2ccccc2c1)C(=O)O; d(hPhe) = N[C@H](CCc1ccccc1)C(=O)O; 2Pal = N[C@@H](Cc1ccccn1)C(=O)O; 2Thi = N[C@@H](Cc1cccs1)C(=O)O; d2Thi = N[C@H](Cc1cccs1)C(=O)O; Suc = O=C(CCC(=O)[*:2])[*:1]; GABA = NCCCC(=O)O

Target: T1, TNFα / TNFα receptor (TNFα R1/Fc) (Homo sapiens, UniProt P01375)
T1 construct: purchased R&D Systems
Test: Inhibition of binding of TNFα to the TNFα receptor (plate ELISA competition)
Conditions: Table 2
Procedure, shortened: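 Plates were coated with TNFα at 15 nM. Test compound and 8.33 nM receptor-Fc (PBST, 2% DMSO) were first mixed in solution for 30 min at room temperature, then transferred to the plates for another 30 min. Competition was read by absorbance at 450 nm after HRP anti-human IgG Fc detection with TMB.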

[1] = read-out: Activity (IC50, inhibition of TNFα binding to TNFα R1/Fc)

T1 sequence (P01375 77-233 limits assumed, species assumed): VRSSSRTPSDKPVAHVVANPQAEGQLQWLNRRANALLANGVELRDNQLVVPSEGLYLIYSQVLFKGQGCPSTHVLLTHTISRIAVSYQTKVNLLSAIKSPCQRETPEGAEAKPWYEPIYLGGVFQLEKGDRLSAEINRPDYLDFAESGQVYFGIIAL

SMILES | IC50 [1] | IC50 (Activity (IC50, inhibition of TNFα binding to TNFα R1/Fc))
O=C1COc2ccc(cc2)C[C@@H](C(=O)NCC2(C(=O)O)CC2)NC(=O)[C@@H](CCc2ccccc2)NC(=O)[C@H](Cc2ccc(-c3ccccc3)cc2)NC(=O)[C@@H](Cc2cccs2)N1 [Compound 404] | < 10 µM | 
CC(=O)O[C@H]1C(=O)Nc2ccc(cc2)C[C@H](C(=O)O)NC(=O)[C@@H](Cc2ccco2)NC(=O)[C@H](Cc2ccc(Br)cc2)NC(=O)[C@@H](Cc2ccccc2)NC(=O)[C@@H]1OC(C)=O [Compound 160] ([dF][Phe(4-Br)][dAla(2-furyl)][dPhe(4-NH2)]-OH; linker N-4 via Tartaroyl(2R,3R-(OAc)2)) | 30 to 100 µM | 
O=C(O)CN1Cc2cccc(c2)CNC(=O)CCC(=O)N[C@H](Cc2cccs2)C(=O)N[C@@H](Cc2ccc(-c3ccccc3)cc2)C(=O)N[C@H](Cc2ccccc2)C1=O [Compound 7] | > 100 µM | 
O=C1COc2ccc(cc2)C[C@@H](C(=O)O)NC(=O)[C@H](CCc2ccccc2)NC(=O)[C@@H](Cc2ccc(-c3ccccc3)cc2)NC(=O)[C@H](Cc2ccc(OCc3ccccc3)cc2)N1 [Compound 685] | < 10 µM | 
O=C(OCc1ccccc1)c1ccc(-c2ccc(C[C@@H]3NC(=O)[C@@H](Cc4cccs4)NC(=O)[C@H](O)[C@@H](O)C(=O)Nc4ccc(cc4)C[C@@H](C(=O)O)NC(=O)[C@@H](Cc4ccccc4)NC3=O)cc2)cc1 [Compound 335] | 10 to 30 µM | 
O=C(O)[C@H](Cc1ccccc1)NC(=O)[C@@H]1Cc2ccc(cc2)NC(=O)[C@H](O)[C@@H](O)C(=O)N[C@@H](Cc2cccs2)C(=O)N[C@H](Cc2ccc(-c3ccccc3)cc2)C(=O)N[C@@H](CCc2ccccc2)C(=O)N1 [Compound 433] | > 100 µM | 
O=C1COc2ccc(cc2)C[C@@H](C(=O)N[C@@H](Cc2ccccc2)C(=O)O)NC(=O)[C@H](CCc2ccccc2)NC(=O)[C@@H](Cc2ccc(-c3ccccc3)cc2)NC(=O)[C@H](Cc2ccc(-c3ccncc3)cc2)N1 [Compound 581] | < 10 µM | 
O=C1COc2ccc(cc2)C[C@@H](C(=O)N[C@H](CCc2ccccc2)C(=O)O)NC(=O)[C@H](CCc2ccccc2)NC(=O)[C@@H](Cc2ccc(-c3ccccc3)cc2)NC(=O)[C@H](Cc2ccncc2)N1 [Compound 619] | < 10 µM | 
COC(=O)[C@@H]1Cc2ccc(cc2)OCC(=O)N[C@@H](Cc2cccs2)C(=O)N[C@H](Cc2ccc(-c3ccccc3)cc2)C(=O)N[C@@H](CCc2ccccc2)C(=O)N1 [Compound 615] | > 100 µM | 
O=C(O)CCNC(=O)[C@@H]1Cc2ccc(cc2)OCC(=O)N[C@@H](Cc2cccs2)C(=O)N[C@H](Cc2ccc(-c3ccccc3)cc2)C(=O)N[C@@H](CCc2ccccc2)C(=O)N1 [Compound 475] | < 10 µM | 
C[C@H](C(=O)O)N(C)C(=O)[C@@H]1Cc2ccc(cc2)OCC(=O)N[C@@H](Cc2cccs2)C(=O)N[C@H](Cc2ccc(-c3ccccc3)cc2)C(=O)N[C@@H](CCc2ccccc2)C(=O)N1 [Compound 576] |  | < 10 µM
O=C(O)CCNC(=O)[C@@H]1Cc2ccc(cc2)NC(=O)[C@H](O)[C@@H](O)C(=O)N[C@H](Cc2cccs2)C(=O)N[C@@H](Cc2ccc(-c3ccccc3)cc2)C(=O)N[C@H](Cc2ccccc2)C(=O)N1 [Compound 175] | < 10 µM | 
O=C1COc2ccc(cc2)C[C@@H](C(=O)O)NC(=O)[C@H](CCc2ccccc2)NC(=O)[C@@H](Cc2ccc(-c3ccc(F)cc3)cc2)NC(=O)[C@H](Cc2cccs2)N1 [Compound 655] | < 10 µM | 
COc1ccc(C[C@@H]2NC(=O)[C@@H](Cc3cccs3)NC(=O)COc3ccc(cc3)C[C@@H](C(=O)O)NC(=O)[C@@H](CCc3ccccc3)NC2=O)cc1OC [Compound 540] | > 100 µM | 
O=C1COc2ccc(cc2)C[C@@H](C(=O)O)NC(=O)[C@@H](CCc2ccccc2)NC(=O)[C@H](Cc2ccc([N+](=O)[O-])cc2)NC(=O)[C@@H](Cc2cccs2)N1 [Compound 541] | > 100 µM | 
NCCCC[C@H](NC(=O)[C@@H]1Cc2ccc(cc2)NC(=O)[C@H](O)[C@@H](O)C(=O)N[C@H](Cc2cccs2)C(=O)N[C@@H](Cc2ccc(-c3ccccc3)cc2)C(=O)N[C@H](Cc2ccccc2)C(=O)N1)C(=O)O [Compound 360] | > 100 µM | 

Continued, in another order:

IC50 [1] | SMILES | IC50 (Activity (IC50, inhibition of TNFα binding to TNFα R1/Fc))
< 10 µM | O=C1COc2ccc(cc2)C[C@@H](C(=O)O)NC(=O)[C@H](Cc2cccc(C(F)(F)F)c2)NC(=O)[C@@H](Cc2ccc(-c3ccccc3)cc2)NC(=O)[C@H](Cc2ccncc2)N1 [Compound 648] | 
> 100 µM | O=C1CCC(=O)N[C@@H](Cc2cccs2)C(=O)N[C@@H](Cc2ccc(-c3ccccc3)cc2)C(=O)N[C@@H](Cc2ccccc2)C(=O)N[C@@H](C(=O)O)Cc2ccc(cc2)N1 [Compound 502] ([2Thi][Bip]F[dPhe(4-NH2)]-OH; linker N-4 via Suc) | 
> 100 µM | O=C1CCC(=O)N[C@H](Cc2cccs2)C(=O)N[C@@H](Cc2ccc(-c3ccccc3)cc2)C(=O)N[C@H](Cc2ccccc2)C(=O)N[C@H](C(=O)N2CCC[C@H]2C(=O)O)Cc2ccc(cc2)N1 [Compound 199] ([d2Thi][Bip][dF][Phe(4-NH2)]P-OH; linker N-4 via Suc) | 
< 10 µM | O=C1CCC(=O)N[C@H](CCc2ccccc2)C(=O)N[C@@H](Cc2ccc(-c3ccccc3)cc2)C(=O)N[C@H](Cc2ccccc2)C(=O)N[C@H](C(=O)N[C@@H](Cc2ccc(O)cc2)C(=O)O)Cc2ccc(cc2)N1 [Compound 471] ([d(hPhe)][Bip][dF][Phe(4-NH2)]Y-OH; linker N-4 via Suc) | 
> 100 µM | O=C1CCC(=O)N[C@H](Cc2ccc3ccccc3c2)C(=O)N[C@@H](Cc2ccc(C(F)(F)F)cc2)C(=O)N[C@H](Cc2ccccc2)C(=O)N[C@H](C(=O)O)Cc2ccc(cc2)N1 [Compound 143] ([d2Nal][Phe(4-CF3)][dF][Phe(4-NH2)]-OH; linker N-4 via Suc) | 
30 to 100 µM | O=C1COc2ccc(cc2)C[C@@H](C(=O)O)NC(=O)[C@@H](Cc2ccccc2)NC(=O)[C@H](Cc2ccc(-c3ccccc3)cc2)NC(=O)[C@H](Cc2cccs2)N1 [Compound 215] | 
> 100 µM | O=C(O)[C@H]1Cc2ccc(cc2)NC(=O)[C@H](O)[C@@H](O)C(=O)N[C@H](Cc2cccs2)C(=O)N[C@H](Cc2ccc(-c3ccccc3)cc2)C(=O)N[C@H](Cc2ccccc2)C(=O)N1 [Compound 276] | 
> 100 µM | O=C1CCC(=O)N[C@H](Cc2cccs2)C(=O)N[C@@H](Cc2ccc(-c3ccccc3)cc2)C(=O)N[C@@H](Cc2ccc(O)cc2)C(=O)N[C@H](C(=O)O)Cc2ccc(cc2)N1 [Compound 58] ([d2Thi][Bip]Y[Phe(4-NH2)]-OH; linker N-4 via Suc) | 
> 100 µM | O=C1COc2ccc(cc2)C[C@@H](C(=O)O)NC(=O)[C@H](Cc2ccccc2)NC(=O)[C@@H](Cc2ccc(C(F)(F)F)cc2)NC(=O)[C@H](Cc2cccs2)N1 [Compound 397] | 
> 100 µM | O=C1CCC(=O)N[C@H](Cc2cccs2)C(=O)N[C@@H](Cc2ccc(-c3ccccc3)cc2)C(=O)N[C@@H](Cc2ccccn2)C(=O)N[C@H](C(=O)O)Cc2ccc(cc2)N1 [Compound 53] ([d2Thi][Bip][2Pal][Phe(4-NH2)]-OH; linker N-4 via Suc) | 
30 to 100 µM | O=C1CCC(=O)N[C@H](Cc2cccc3ccccc23)C(=O)N[C@@H](Cc2ccc(C(F)(F)F)cc2)C(=O)N[C@H](Cc2ccccc2)C(=O)N[C@H](C(=O)O)Cc2ccc(cc2)N1 [Compound 142] ([d1Nal][Phe(4-CF3)][dF][Phe(4-NH2)]-OH; linker N-4 via Suc) | 
> 100 µM | NC(=O)C[C@@H]1NC(=O)COc2ccc(cc2)C[C@@H](C(=O)O)NC(=O)[C@H](Cc2ccccc2)NC(=O)[C@@H](Cc2ccc(-c3ccccc3)cc2)NC1=O [Compound 488] | 
> 100 µM | N=C(N)NCCC[C@H]1NC(=O)CCC(=O)Nc2ccc(cc2)C[C@@H](C(=O)O)NC(=O)[C@@H](Cc2ccccc2)NC(=O)[C@H](Cc2ccc(C(F)(F)F)cc2)NC1=O [Compound 141] ([dR][Phe(4-CF3)][dF][Phe(4-NH2)]-OH; linker N-4 via Suc) | 
10 to 30 µM | Nc1ccc(C[C@H](NC(=O)[C@@H]2Cc3ccc(cc3)NC(=O)CCC(=O)N[C@H](CCc3ccccc3)C(=O)N[C@@H](Cc3ccc(-c4ccccc4)cc3)C(=O)N[C@H](Cc3ccccc3)C(=O)N2)C(=O)O)cc1 [Compound 505] ([d(hPhe)][Bip][dF][Phe(4-NH2)][Phe(4-NH2)]-OH; linker N-4 via Suc) | 
> 100 µM | C[C@@H](NC(=O)[C@@H]1Cc2ccc(cc2)NC(=O)CCC(=O)N[C@H](Cc2ccccc2)C(=O)N[C@@H](Cc2ccc(-c3ccccc3)cc2)C(=O)N[C@H](CCc2ccccc2)C(=O)N1)C(=O)O [Compound 457] ([dF][Bip][d(hPhe)][Phe(4-NH2)][dA]-OH; linker N-4 via Suc) | 
> 100 µM | COc1ccc(C[C@H]2NC(=O)COc3ccc(cc3)C[C@@H](C(=O)O)NC(=O)[C@@H](CCc3ccccc3)NC(=O)[C@H](Cc3ccc(-c4ccccc4)cc3)NC2=O)cc1 [Compound 522] | 
> 100 µM | O=C1CCCNC(=O)c2ccc(cc2)C[C@@H](C(=O)O)NC(=O)[C@@H](Cc2ccccc2)NC(=O)[C@H](Cc2ccc(-c3ccccc3)cc2)NC(=O)[C@@H](CCc2ccccc2)N1 [Compound 249] ([GABA][d(hPhe)][Bip][dF][Phe(4-COOH)]-OH; lactam N-5) | 
< 10 µM | O=C1COc2ccc(cc2)C[C@@H](C(=O)O)NC(=O)[C@H](CCc2ccccc2)NC(=O)[C@@H](Cc2ccc(-c3ccccc3)cc2)NC(=O)[C@H](Cc2ccccc2F)N1 [Compound 677] | 
> 100 µM | O=C1CCC(=O)N[C@H](CCc2ccccc2)C(=O)N[C@@H](Cc2ccc(-n3cccn3)cc2)C(=O)N[C@H](Cc2ccccc2)C(=O)N[C@H](C(=O)O)Cc2ccc(cc2)N1 [Compound 115] | 
< 10 µM | COc1cccc(C[C@@H]2NC(=O)[C@@H](Cc3ccc(-c4ccccc4)cc3)NC(=O)[C@H](Cc3ccncc3)NC(=O)COc3ccc(cc3)C[C@@H](C(=O)O)NC2=O)c1 [Compound 638] | 
> 100 µM | Cn1cnc(C[C@@H]2NC(=O)[C@@H](Cc3cccs3)NC(=O)CCC(=O)Nc3ccc(cc3)C[C@@H](C(=O)O)NC(=O)[C@@H](Cc3ccccc3)NC2=O)c1 [Compound 100] ([d2Thi][His(τ-Me)][dF][Phe(4-NH2)]-OH; linker N-4 via Suc) | 
